Test results published in US8921108B2, “Differentiated human liver cell cultures and their use in bioartificial liver systems” (Academisch Ziekenhuis Bij de Universiteit van Amsterdam, priority 2009, dated 2014).
Several values for one entry are separate records, joined by “and”; a condition that tells them apart may be missing. Identical values can stand only once. Values belong to the molecule of their own block, whether it stands above or below them.

Columns and labels:
HepaRG cells [1] = experiment: Total protein content of HepaRG monolayer cultures; format: cell-based, human
Protocol: (§1) For testing, the cells are seeded in 6-well and 24-well culture plates (Corning) in HepaRG media with different FBS batches or other differences in medium composition. After a 2 weeks proliferation phase, 2% of DMSO will be added to half of the cultures. After another 2 weeks of culturing, the confluence and morphology of the cultures will be assessed microscopically. Furthermore the +DMSO and −DMSO cell cultures in the 24-well plates will be tested for biochemical activity, i.e. urea production, ammonia elimination and protein content. The cultured cells are washed twice using phosphate buffered saline (PBS, NBPI International) and then incubated with test medium consisting of HepaRG culture medium supplemented with 1.5 mM ^15NH4Cl (Sigma), 2.75 mM D-galactose (Sigma), 2 mM ornithine hydrochloride (Sigma) and 2 mM L-lactate (Sigma). Medium samples are taken after 1 hr from the culture wells, as a reference, and after 24 hours. At the end of the test period the cells are washed three times using PBS and stored at −20° C. for protein determination. From the changes in concentration at t=1 hr and 24 hr of urea and ammonia an activity per hour and per mg protein/well is calculated. Quality of the cell-loaded bioreactors, measured by hepatocyte function at the start of the treatment, will be compared with values of primary hepatocytes that have been tested extensively in vitro in the past.
Total protein: Total protein was quantified by spectrometry using Coomassie blue (Bio-Rad).

HepaRG cells [2] = experiment: RT-PCR mRNA levels of hepatic genes in HepaRG monolayer cultures; format: cell-based, human
Protocol: The HepaRG cells cultured in the 6-well plates are lysed and the RNA is isolated using the RNeasy kit (Qiagen). Next, real-time reverse transcriptase-polymerase chain reactions (RT-PCR) are performed to quantify mRNA levels of hepatic genes as well as 18S ribosomal RNA levels by RT-PCR.
First-strand cDNA is generated using a combination of 40 pmol of gene-specific RT-primers (see Table 1) and 134 units of Superscript III (Invitrogen) and 1 μg RNA in a total volume of 25 μl at 50° C. for one hour followed by a 15 min incubation at 70° C. The resulting gene-specific RT reaction mixtures are column purified using Qiaquick PCR Purification Kit (Qiagen).
Real-time PCR is performed using 1 μl of cDNA and LightCycler FastStart DNA Master SYBR® Green 1 reagent (Roche). PCR primers are depicted in the Table 3. The thermal cycling profile of the touchdown PCR is as follows: 94° C. for 10 min, followed by 40 cycles of 94° C. for 1 s, primer annealing at 68° C. for 7 s with a 0.5° C./cycle decrease until 63° C., and extension for 40 s at 72° C. PCR specificity is verified by melting curve analysis and agarose gel electrophoresis. The mRNA quantification is carried out by using the LinRegPCR programme (Ramakers et al.^17). For each sample the mRNA starting level is normalised for the 18S rRNA starting level. To correct for variations between RT-PCR runs, the mRNA starting levels of liver specific genes of NKNT-3 cells are additionally standardized for average mRNA starting levels of two liver samples that are simultaneously subjected to RT-PCR.

HepaRG cells [3] = experiment: ApoA1 production of HepaRG monolayer cultures (ELISA); format: cell-based, human
Protocol: as §1
ApoA1: Human ApoA1 concentrations are determined by ELISA using rabbit anti-human ApoA1 (1:500, Calbiochem, 178422), as first antibody, monoclonal mouse anti human ApoA1 (1:500, Calbiochem, 178472) as second antibody and polyclonal rabbit anti mouse IgG-HRP (1:2000, Dako Po 260) as third antibody.

HepaRG cells [4] = experiment: Urea production of HepaRG monolayer cultures; format: cell-based, human
Protocol: For testing, the cells are seeded in 6-well and 24-well culture plates (Corning) in HepaRG media with different FBS batches or other differences in medium composition. After a 2 weeks proliferation phase, 2% of DMSO will be added to half of the cultures. After another 2 weeks of culturing, the confluence and morphology of the cultures will be assessed microscopically. Furthermore the +DMSO and −DMSO cell cultures in the 24-well plates will be tested for biochemical activity, i.e. urea production, ammonia elimination and protein content. […] Medium samples are taken after 1 hr from the culture wells, as a reference, and after 24 hours. At the end of the test period the cells are washed three times using PBS and stored at −20° C. for protein determination. From the changes in concentration at t=1 hr and 24 hr of urea and ammonia an activity per hour and per mg protein/well is calculated.
Urea: Urea concentrations of test medium samples are determined using the blood urea nitrogen test of Sigma Chemical Co according to the instructions of the manufacturer.
(§2) The HepaRG cells are cultured as indicated above in 24 well in presence or absence of 1 mM CG during the last 5 days. Next the cells are tested as indicated above in presence or absence of CG during 24 hours. To determine the conversion of ammonia into urea, the ^15N urea enrichment (single and double labeled) is measured in the test samples using mass-spectrometry. Similarly, HepG2 and cBAL111 cells were tested for their response to CG.

HepaRG cells [5] = experiment: Galactose elimination of HepaRG monolayer cultures; format: cell-based, human; settings: HepaRG monolayer +DMSO
Protocol: as §1

HepaRG cells [6] = experiment: Lactate elimination/consumption of HepaRG monolayer cultures; format: cell-based, human
Protocol: as §1, with “At the end of the test period the cells are washed three times using PBS and stored at −20° C. for protein determination.” left out
Lactate and glucose concentration: Both are analyzed using a P800 analyzer (Roche Diagnostics).

HepaRG cells [7] = experiment: 15N urea enrichment (conversion of ammonia into urea) in HepaRG monolayer cultures; format: cell-based, human; settings: HepaRG monolayer +DMSO, no CG
Protocol: as §1
^15N Urea: Single and Double labelled urea is measured in the test medium samples using mass-spectrometry.
as §2

HepaRG cells [8] = experiment: Ammonia elimination of HepaRG monolayer cultures; format: cell-based, human
Protocol: For testing, the cells are seeded in 6-well and 24-well culture plates (Corning) in HepaRG media with different FBS batches or other differences in medium composition. After a 2 weeks proliferation phase, 2% of DMSO will be added to half of the cultures. After another 2 weeks of culturing, the confluence and morphology of the cultures will be assessed microscopically. Furthermore the +DMSO and −DMSO cell cultures in the 24-well plates will be tested for biochemical activity, i.e. urea production, ammonia elimination and protein content. […] From the changes in concentration at t=1 hr and 24 hr of urea and ammonia an activity per hour and per mg protein/well is calculated. Quality of the cell-loaded bioreactors, measured by hepatocyte function at the start of the treatment, will be compared with values of primary hepatocytes that have been tested extensively in vitro in the past.
Ammonia: Ammonia concentrations are determined by an enzymatic kinetic colorimetric assay using glutamate dehydrogenase and NADPH, using the Ammonia (rapid) kit (Megazyme, Ireland) according to the instructions of the manufacturer.

HepaRG cells [9] = experiment: AST and LDH leakage of HepaRG monolayer cultures; format: cell-based, human; settings: HepaRG monolayer +DMSO
Protocol: as §1
AST and LDH: Both AST and LDH activities are analyzed spectrophotometrically using a P800 Roche Diagnostics analyzer.

Arginase II (Arg II) = biological target: T1, Arginase II (Arg II) (Homo sapiens, UniProt P78540); settings: C3A cells; cited from earlier work
T1 construct: Arginase II (Arg II) mRNA and protein was expressed at high levels in C3A cells; endogenous in cells; host or cells: C3A cells (HepG2 sub-clone)
T1 sequence (P78540 23-354): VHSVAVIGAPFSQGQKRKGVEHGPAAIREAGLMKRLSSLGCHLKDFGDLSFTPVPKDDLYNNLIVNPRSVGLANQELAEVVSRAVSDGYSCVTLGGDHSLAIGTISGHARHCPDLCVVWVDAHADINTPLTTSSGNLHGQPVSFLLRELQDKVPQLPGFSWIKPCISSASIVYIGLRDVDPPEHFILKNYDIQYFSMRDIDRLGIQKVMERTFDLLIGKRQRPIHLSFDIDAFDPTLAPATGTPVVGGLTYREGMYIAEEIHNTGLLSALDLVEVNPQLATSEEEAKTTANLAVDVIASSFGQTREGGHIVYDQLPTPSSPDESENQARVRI

[10] = HepaRG monolayer, 2% DMSO last 2 weeks, no CG
[11] = HepaRG monolayer, DMSO treatment
[12] = HepaRG monolayer +DMSO, per well

effect on cell number (HepaRG cells [1]; presence of DMSO, deduced from total protein content): drastically reduced
effect on CYP2B6 and 3A4 expression (HepaRG cells [2]; [11]): increased
SMILES: C[S+](C)[O-] [DMSO, dimethylsulfoxide]
total protein/well (HepaRG cells [1]; [10]): 109 ± 21 µg
cells killed by DMSO treatment (HepaRG cells [1]; HepaRG monolayer, deduced from total protein/well content and increased cell leakage): more than 50%
ArgII mRNA level (HepaRG cells [2]; HepaRG monolayer +DMSO −CG): 718 ± 463 % of in vivo
ALB mRNA level (HepaRG cells [2]; [10]): 23 ± 4 % of in vivo and 22.7 ± 4.4 % of in vivo
ARG1 mRNA level (HepaRG cells [2]; [10]): 5 ± 4 % of in vivo and 4.6 ± 3.7 % of in vivo
CPS mRNA level (HepaRG cells [2]; [10]): 1.1 ± 0.4 % of in vivo
CYP2B6 mRNA level (HepaRG cells [2]; [10]): 61 ± 30 % of in vivo and 60.7 ± 30.0 % of in vivo
CYP3A4 mRNA level (HepaRG cells [2]; [10]): 69 ± 47 % of in vivo and 68.9 ± 47.2 % of in vivo
GS mRNA level (HepaRG cells [2]; [10]): 90 ± 29 % of in vivo and 90.1 ± 29.1 % of in vivo
HNF4 mRNA level (HepaRG cells [2]; [10]): 61 ± 21 % of in vivo and 60.8 ± 21.1 % of in vivo
PXR mRNA level (HepaRG cells [2]; [10]): 42 ± 19 % of in vivo and 41.7 ± 19.2 % of in vivo
effect on expression of other hepatic genes tested (HepaRG cells [2]; [11]): either unaffected or decreased
effect on gene expression of synthetic and metabolic genes, as CPS and albumin and galactose elimination (HepaRG cells [2]; presence of DMSO): inhibited
ApoA1 synthesis (HepaRG cells [3]; HepaRG monolayer +DMSO −CG): 1.2 ± 1.1 ug/h/mg protein
ApoA1 production (absolute value) (HepaRG cells [3]; [12]): 0.11 ± 0.11 µg/h
ApoA1 production (HepaRG cells [3]; [10]): 1.06 ± 0.95 μg/h/mg protein
Urea production (absolute value) (HepaRG cells [4]; [12]): 0.8 ± 0.5 nmol/h
Urea production (HepaRG cells [4]; [10]): 8.1 ± 6.8 nmol/h/mg protein and 6.0 ± 4.2 nmol/h/mg protein and 7.0 ± 7.0 nmol/h/mg protein
Galactose elimination (protein normalized) (HepaRG cells [5]): 58 ± 17 nmol/h/mg protein
Galactose elimination (absolute value) (HepaRG cells [5]; per well): 7.2 ± 1.8 nmol/h
Lactate consumption (HepaRG cells [6]; HepaRG monolayer +DMSO −CG): production
Lactate elimination (HepaRG cells [6]; [10]): production
15N urea enrichment (HepaRG cells [7]): 15.5 ± 8.4 % of total urea and 16.0 ± 8.4 % of total urea
Ammonia elimination (absolute value) (HepaRG cells [8]; [12]): 11.6 ± 4.3 nmol/h
Ammonia elimination (HepaRG cells [8]; [10]): 107 ± 41 nmol/h/mg protein and 110 ± 49 nmol/h/mg protein
AST leakage (protein normalized) (HepaRG cells [9]): 4.9 ± 2.4 mU/h/mg protein
LDH leakage (protein normalized) (HepaRG cells [9]): 21.2 ± 9.4 mU/h/mg protein
AST leakage (absolute value) (HepaRG cells [9]; per well): 0.43 ± 0.08 mU/h
LDH leakage (absolute value) (HepaRG cells [9]; per well): 1.87 ± 0.43 mU/h

SMILES: N=C(NO)NCC[C@H](N)C(=O)O [N^ω-hydroxy-nor-L-arginine]
effect on Arginase II (Arginase II (Arg II)): inhibited
effect on urea production (Arginase II (Arg II)): prevented
